{
  "source": "paper PMC7377474",
  "about": "“Preclinical characterization of CPL302-253, a selective inhibitor of PI3Kδ, as the candidate for the inhalatory treatment and prevention of Asthma” (PLoS ONE, 2020)",
  "origin": "cited, not measured here",
  "molecular_target": "T1, hERG (Homo sapiens, UniProt Q12809)",
  "T1 construct": "purchased DiscoverX (Eurofins) SafetyScan44",
  "T1 sequence (Q12809 whole entry)": "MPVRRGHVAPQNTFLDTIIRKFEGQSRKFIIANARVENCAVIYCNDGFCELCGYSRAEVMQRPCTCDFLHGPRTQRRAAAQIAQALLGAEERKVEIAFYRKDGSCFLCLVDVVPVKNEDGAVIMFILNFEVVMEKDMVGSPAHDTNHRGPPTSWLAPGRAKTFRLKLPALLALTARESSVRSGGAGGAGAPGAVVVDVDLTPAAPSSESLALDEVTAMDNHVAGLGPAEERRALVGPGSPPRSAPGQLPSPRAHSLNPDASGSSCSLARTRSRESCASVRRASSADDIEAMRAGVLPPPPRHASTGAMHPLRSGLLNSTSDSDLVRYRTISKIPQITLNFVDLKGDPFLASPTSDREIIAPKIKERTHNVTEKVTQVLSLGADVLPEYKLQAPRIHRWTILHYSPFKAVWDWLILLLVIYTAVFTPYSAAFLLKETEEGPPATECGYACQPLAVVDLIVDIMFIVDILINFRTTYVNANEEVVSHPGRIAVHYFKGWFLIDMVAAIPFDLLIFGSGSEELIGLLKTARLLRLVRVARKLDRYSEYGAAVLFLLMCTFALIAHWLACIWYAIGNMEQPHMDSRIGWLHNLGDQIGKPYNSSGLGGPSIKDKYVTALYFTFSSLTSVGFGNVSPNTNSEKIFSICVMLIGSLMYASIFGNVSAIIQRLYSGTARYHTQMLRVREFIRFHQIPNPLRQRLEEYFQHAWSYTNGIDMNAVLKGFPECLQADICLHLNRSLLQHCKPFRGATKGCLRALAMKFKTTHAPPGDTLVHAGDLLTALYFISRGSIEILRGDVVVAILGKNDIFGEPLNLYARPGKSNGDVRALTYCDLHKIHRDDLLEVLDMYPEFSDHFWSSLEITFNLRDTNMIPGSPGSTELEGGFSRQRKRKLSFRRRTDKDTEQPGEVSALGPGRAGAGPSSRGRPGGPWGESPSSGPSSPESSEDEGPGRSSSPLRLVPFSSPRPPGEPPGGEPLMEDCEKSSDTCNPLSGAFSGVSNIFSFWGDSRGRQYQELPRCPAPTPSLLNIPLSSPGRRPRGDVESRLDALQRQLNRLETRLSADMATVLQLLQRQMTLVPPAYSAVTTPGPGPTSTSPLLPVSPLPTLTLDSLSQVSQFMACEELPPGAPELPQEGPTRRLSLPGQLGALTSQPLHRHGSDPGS",
  "settings": "available preclinical data; cited from earlier work",
  "data": [
    {"smiles": "CC(C)N1CCN(Cc2cnc(-c3cc(-c4cccc5[nH]ccc45)cc4[nH]ncc34)o2)CC1", "note": "[Nemiralisib]", "values": [
      {"measurement": "activity towards hERG", "value": "has activity towards hERG"}
    ]}
  ]
}
